Source: patent US8884013B2, “Polymorphs of Dasatinib, preparation methods and pharmaceutical compositions thereof” (Nan Jing Cavendish Bio-Engineering Technology Co., Ltd., priority 2010, dated 2014)
One block for each compound: values may come before it.

Key:
[1] = High temperature test (60° C.); type: physicochemical; details: for Change of appearance in high temperature test (in words) / Change of content in high temperature test (in words): summary of 10-day test
Description: The conditions and methods of related substance test involved in this invention was in accordance with HPLC (Appendix VD of Chinese Pharmacopoeia, Vol. II, (2005)).
Chromatographic conditions and system applicability:
(§1) octadecylsilane bonded silica as the filler; 0.05 mol/L of potassium dihydrogen phosphate (adjusted to pH 2.5 by phosphoric acid)-methanol (45:55) as the mobile phase; detection wavelength was 230 nm; the number of theoretical plates should be not less than 2000, calculated according to the peak area of Dasatinib. The resolution of the peak of Dasatinib from the peaks of adjacent impurities should meet requirements.
Test Method: the sample was weight and dissolved into mobile phase to be the solution containing 0.5 mg per mL, and 20 μL of this solution was taken and injected into liquid chromatography. Chromatogram was recorded until it is 6 times as the retention time of the main peak.
2.2 High Temperature Test
The raw material of Polymorph I of Dasatinib monohydrate was put into a clean sealed glass bottle and then put in thermostatic drying chamber at 60° C. Sample was tested at the 5th and 10th day respectively and the results were contrasted with that of the Day 0. Results were listed in Tab. 3.
The raw material of Polymorph II of Dasatinib was put into a clean sealed glass bottle and then put in thermostatic drying chamber at 60° C. Sample was tested at the 5th and 10th day respectively and the results were contrasted with that of the Day 0. Results were listed in Tab. 8.

[2] = Comparative test on stability: destruction experiment, related substances by HPLC; type: physicochemical
Method: The methods of destruction experiment of the Polymorph I and II of this invention (hereinafter referred to as ‘Polymorph I’ and ‘Polymorph II’) contrasting with the Polymorph A of Dasatinib prepared by the method in CN200580011916.6 (hereinafter referred to as ‘916.6 Polymorph A’) and results of stability are followed:
Oxidation destruction: 50 mg of sample weighted accurately was added into measuring flask of 100 mL, and 10 mL 30% H2O2 was added. After standing at room temperature for 2 hour, the mixture was diluted with mobile phase to scale and shook to be homogeneous, and determined by HPLC.
(§2) Acid destruction: 50 mg of sample weighted accurately was added into measuring flask of 100 mL, and 10 mL 1 mol/L HCl solution was added. After standing at 40° C. for 1 hour, an equal amount of 1 mol/L NaOH solution was added for neutralization. Then the mixture was diluted with mobile phase to scale and shook to be homogeneous, and determined by HPLC.
as §2, with “Alkali” for “Acid”, “NaOH” for “HCl”, “HCl” for “NaOH”
Illumination destruction: 50 mg of sample weighted accurately was added into measuring flask of 100 mL, dissolved and diluted with mobile phase to be the solution containing 0.5 mg Dasatinib per milliliter. After standing under illumination of 4000 lx for 6 hour, the mixture was determined by HPLC.
High temperature destruction: 50 mg of sample weighted accurately was added into measuring flask of 100 mL, dissolved and diluted with mobile phase to be the solution containing 0.5 mg Dasatinib per milliliter. After standing in homothermal water bath of 60° C. for 4 hour, the mixture was cooled and then determined by HPLC.
Related Substances Determination
as §1, with “HPLC conditions and system applicability: octadecylsilane” for “octadecylsilane”, “acid, 0.2% triethylamine)-methanol” for “acid)-methanol”, “peak” for “peak area”
Determination method: sample was dissolved in mobile phase to be the solution containing 0.5 mg per milliliter. 20 μL of such solution was injected into liquid chromatograph, and chromatogram was recorded until the sixfold retention time of major component peak. If there were impurities peaks in the chromatogram of sample solution, total impurities and any single impurity were calculated by normalization method on the basis of peak area.

[3] = Stability in water compared with polymorph A of CN200580011916.6
[4] = High humidity test (room temperature, 75 ± 5% relative humidity); type: physicochemical; details: for Hydroscopic property: high humidity test; for Appearance / Content / Weight gain of moisture absorption: room temperature, 75 ± 5% relative humidity; for Change of appearance in high humidity test (in words) / Change of content in high humidity test (in words): summary of 10-day test
Method: (§3) The raw material of Polymorph I of Dasatinib monohydrate was distributed homogeneously in open petri dish with thickness of the raw material not more than 5 mm and put into thermostatic and humidostatic incubator at room temperature (about 25° C.) and 75±5% relative humidity. Sample was tested at the 5th and 10th day respectively and the results were contrasted with that of the Day 0. Results were listed in Tab. 4.
as §3, with “II” for “I”, “Dasatinib” for “Dasatinib monohydrate”, “9.” for “4.”

[5] = 1 mol/L acid destruction (HCl, 40° C., 1 hour)
[6] = 1 mol/L alkali destruction (NaOH, 40° C., 1 hour)
[7] = high temperature destruction (60° C. water bath, 4 hour, in solution)
[8] = illumination destruction (4000 lx, 6 hour, in solution)
[9] = oxidation destruction (30% H2O2, room temperature, 2 hour)

- Appearance ([1]; day 0): white powder
- Content ([1]; day 0): 99.8%
- Related substance ([1]; day 0): 0.06%
- Appearance ([1]; day 5): white powder
- Content ([1]; day 5): 99.7%
- Related substance ([1]; day 5): 0.09%
- Appearance ([1]; day 10): white powder
- Content ([1]; day 10): 99.5%
- Related substance ([1]; day 10): 0.12%
- Change of appearance in high temperature test (in words) [1]: few obvious change
- Change of content in high temperature test (in words) [1]: went down marginally
- Impurity tR4.102 ([2]; 1 mol/L acid destruction): 0.02%
- Impurity tR4.987 ([2]; 1 mol/L acid destruction): 0.01%
- Impurity tR5.603 ([2]; 1 mol/L acid destruction): 0.02%
- Total impurities [2, 5]: 0.06%
- Impurity tR4.130 ([2]; 1 mol/L alkali destruction): 0.02%
- Impurity tR5.089 ([2]; 1 mol/L alkali destruction): 0.01%
- Impurity tR5.501 ([2]; 1 mol/L alkali destruction): 0.02%
- Total impurities [2, 6]: 0.08%
- Impurity tR4.113 ([2]; before destruction): 0.02%
- Impurity tR5.037 ([2]; before destruction): 0.01%
- Impurity tR5.535 ([2]; before destruction): 0.03%
- Total impurities ([2]; before destruction): 0.07%
- Impurity tR3.569 ([2]; high temperature destruction): 0.01%
- Impurity tR4.120 ([2]; high temperature destruction): 0.02%
- Impurity tR5.088 ([2]; high temperature destruction): 0.01%
- Impurity tR5.520 ([2]; high temperature destruction): 0.02%
- Total impurities [2, 7]: 0.05%
- Impurity tR2.199 ([2]; illumination destruction): 0.04%
- Impurity tR2.527 ([2]; illumination destruction): 0.06%
- Impurity tR2.911 ([2]; illumination destruction): 0.33%
- Impurity tR3.734 ([2]; illumination destruction): 0.11%
- Impurity tR4.119 ([2]; illumination destruction): 0.04%
- Impurity tR4.585 ([2]; illumination destruction): 0.08%
- Impurity tR5.089 ([2]; illumination destruction): 0.03%
- Impurity tR5.502 ([2]; illumination destruction): 0.14%
- Impurity tR5.996 ([2]; illumination destruction): 0.08%
- Impurity tR10.096 ([2]; illumination destruction): 0.66%
- Total impurities [2, 8]: 1.28%
- Impurity tR3.719 ([2]; oxidation destruction): 0.06%
- Impurity tR4.108 ([2]; oxidation destruction): 0.02%
- Impurity tR4.568 ([2]; oxidation destruction): 0.04%
- Impurity tR5.090 ([2]; oxidation destruction): 0.01%
- Impurity tR5.508 ([2]; oxidation destruction): 0.06%
- Impurity tR6.467 ([2]; oxidation destruction): 0.05%
- Impurity tR9.476 ([2]; oxidation destruction): 1.058%
- Total impurities [2, 9]: 1.32%
- Stability in water by comparison to polymorph A of CN200580011916.6 [3]: better stability in water
- Hydroscopic property [4]: lower
- Appearance ([4]; day 0): white powder
- Content ([4]; day 0): 99.7%
- Weight gain of moisture absorption ([4]; day 0): 3.57%
- Appearance ([4]; day 5): white powder
- Content ([4]; day 5): 99.6%
- Weight gain of moisture absorption ([4]; day 5): 3.73%
- Appearance ([4]; day 10): white powder
- Content ([4]; day 10): 99.7%
- Weight gain of moisture absorption ([4]; day 10): 3.76%
- Change of appearance in high humidity test (in words) [4]: no obvious change
- Change of content in high humidity test (in words) [4]: no obvious change
Compound: Cc1nc(Nc2ncc(C(=O)Nc3c(C)cccc3Cl)s2)cc(N2CCN(CCO)CC2)n1 [Polymorph I, N-(2-chloro-6-methylphenyl)-2-[[6-[4-(2-hydroxyethyl)-1-piperazinyl]-2-methyl-4-pyrimidyl]amino]-5-thiazolformamide]

- Content ([1]; day 0): 99.8%
- Related substance ([1]; day 0): 0.06%
- Content ([1]; day 5): 99.7%
- Related substance ([1]; day 5): 0.11%
- Content ([1]; day 10): 99.4%
- Related substance ([1]; day 10): 0.16%
- Change of appearance in high temperature test (in words) [1]: few obvious change
- Change of content in high temperature test (in words) [1]: few obvious change
- Impurity tR4.101 ([2]; 1 mol/L acid destruction): 0.01%
- Impurity tR4.993 ([2]; 1 mol/L acid destruction): 0.01%
- Impurity tR5.604 ([2]; 1 mol/L acid destruction): 0.02%
- Total impurities [2, 5]: 0.06%
- Impurity tR3.580 ([2]; 1 mol/L alkali destruction): 0.01%
- Impurity tR4.131 ([2]; 1 mol/L alkali destruction): 0.02%
- Impurity tR5.092 ([2]; 1 mol/L alkali destruction): 0.01%
- Impurity tR5.512 ([2]; 1 mol/L alkali destruction): 0.02%
- Impurity tR9.424 ([2]; 1 mol/L alkali destruction): 0.01%
- Total impurities [2, 6]: 0.08%
- Impurity tR4.114 ([2]; before destruction): 0.02%
- Impurity tR5.049 ([2]; before destruction): 0.01%
- Impurity tR5.473 ([2]; before destruction): 0.02%
- Total impurities ([2]; before destruction): 0.06%
- Impurity tR3.567 ([2]; high temperature destruction): 0.01%
- Impurity tR4.117 ([2]; high temperature destruction): 0.01%
- Impurity tR5.085 ([2]; high temperature destruction): 0.01%
- Impurity tR5.507 ([2]; high temperature destruction): 0.02%
- Total impurities [2, 7]: 0.06%
- Impurity tR2.197 ([2]; illumination destruction): 0.05%
- Impurity tR2.526 ([2]; illumination destruction): 0.05%
- Impurity tR2.910 ([2]; illumination destruction): 0.02%
- Impurity tR3.733 ([2]; illumination destruction): 0.11%
- Impurity tR4.116 ([2]; illumination destruction): 0.04%
- Impurity tR4.582 ([2]; illumination destruction): 0.07%
- Impurity tR5.084 ([2]; illumination destruction): 0.02%
- Impurity tR5.496 ([2]; illumination destruction): 0.15%
- Impurity tR5.990 ([2]; illumination destruction): 0.06%
- Impurity tR10.084 ([2]; illumination destruction): 0.78%
- Total impurities [2, 8]: 1.36%
- Impurity tR4.393 ([2]; oxidation destruction): 0.02%
- Impurity tR4.567 ([2]; oxidation destruction): 0.03%
- Impurity tR5.090 ([2]; oxidation destruction): 0.01%
- Impurity tR5.510 ([2]; oxidation destruction): 0.07%
- Impurity tR6.468 ([2]; oxidation destruction): 0.04%
- Impurity tR9.486 ([2]; oxidation destruction): 1.00%
- Total impurities [2, 9]: 1.19%
- Stability in water by comparison to polymorph A of CN200580011916.6 [3]: better stability in water
- Hydroscopic property [4]: lower
- Appearance ([4]; day 0): white powder
- Content ([4]; day 0): 99.8%
- Weight gain of moisture absorption ([4]; day 0): 0.57%
- Appearance ([4]; day 5): white powder
- Content ([4]; day 5): 99.7%
- Weight gain of moisture absorption ([4]; day 5): 3.63%
- Appearance ([4]; day 10): white powder
- Content ([4]; day 10): 99.8%
- Weight gain of moisture absorption ([4]; day 10): 3.72%
- Change of appearance in high humidity test (in words) [4]: no obvious change
- Change of content in high humidity test (in words) [4]: no obvious change
Compound: Cc1nc(Nc2ncc(C(=O)Nc3c(C)cccc3Cl)s2)cc(N2CCN(CCO)CC2)n1 [Polymorph II, N-(2-chloro-6-methylphenyl)-2-[[6-[4-(2-hydroxyethyl)-1-piperazinyl]-2-methyl-4-pyrimidyl]amino]-5-thiazolformamide]
